test system: PABPC1 PABC; format: binding, human; settings: DMS-BM library, bait PABPC1 PABC, prey ATXN2, TLNPNAKEFNPRSF(averaged) over the two overlapping peptides; R = wild type, row aa = residue at this position

Substance	DMS-derived PSSM value (averaged), position R12
TLNPNAKEFNPRSF(averaged) R12L (TLNPNAKEFNPLSF)	0.02116
TLNPNAKEFNPRSF(averaged) R12M (TLNPNAKEFNPMSF)	0.02329
TLNPNAKEFNPRSF(averaged) R12N (TLNPNAKEFNPNSF)	0.02727
TLNPNAKEFNPRSF(averaged) R12P (TLNPNAKEFNPPSF)	0.006659
TLNPNAKEFNPRSF(averaged) R12Q (TLNPNAKEFNPQSF)	0.05602
TLNPNAKEFNPRSF(averaged) R12S (TLNPNAKEFNPSSF)	0.1293
TLNPNAKEFNPRSF(averaged) R12T (TLNPNAKEFNPTSF)	0.1269
TLNPNAKEFNPRSF(averaged) R12V (TLNPNAKEFNPVSF)	0.08681
TLNPNAKEFNPRSF(averaged) R12W (TLNPNAKEFNPWSF)	0.09752
TLNPNAKEFNPRSF(averaged) R12Y (TLNPNAKEFNPYSF)	0.04827

same assay, conditions: DMS-BM library, bait PABPC1 PABC, prey ATXN2, TLNPNAKEFNPRSF(averaged) over the two overlapping peptides; S = wild type, row aa = residue at this position

Substance	DMS-derived PSSM value (averaged), position S13
TLNPNAKEFNPRSF(averaged) S13A (TLNPNAKEFNPRAF)	0.1254
TLNPNAKEFNPRSF(averaged) S13D (TLNPNAKEFNPRDF)	0.02964
TLNPNAKEFNPRSF(averaged) S13E (TLNPNAKEFNPREF)	0.01358
TLNPNAKEFNPRSF(averaged) S13F (TLNPNAKEFNPRFF)	0.01382
TLNPNAKEFNPRSF(averaged) S13G (TLNPNAKEFNPRGF)	0.08376
TLNPNAKEFNPRSF(averaged) S13H (TLNPNAKEFNPRHF)	0.06517
TLNPNAKEFNPRSF(averaged) S13I (TLNPNAKEFNPRIF)	0.01901
TLNPNAKEFNPRSF(averaged) S13K (TLNPNAKEFNPRKF)	0.003966
TLNPNAKEFNPRSF(averaged) S13L (TLNPNAKEFNPRLF)	0.2429
TLNPNAKEFNPRSF(averaged) S13M (TLNPNAKEFNPRMF)	0.01383
TLNPNAKEFNPRSF(averaged) S13N (TLNPNAKEFNPRNF)	0.08567
TLNPNAKEFNPRSF(averaged) S13P (TLNPNAKEFNPRPF)	0.06349
TLNPNAKEFNPRSF(averaged) S13Q (TLNPNAKEFNPRQF)	0.009251
TLNPNAKEFNPRSF(averaged) S13R (TLNPNAKEFNPRRF)	0.00496
TLNPNAKEFNPRSF(averaged) S13T (TLNPNAKEFNPRTF)	0.05607
TLNPNAKEFNPRSF(averaged) S13V (TLNPNAKEFNPRVF)	0.05819
TLNPNAKEFNPRSF(averaged) S13W (TLNPNAKEFNPRWF)	0.01751
TLNPNAKEFNPRSF(averaged) S13Y (TLNPNAKEFNPRYF)	0.0362

same assay, conditions: DMS-BM library, bait PABPC1 PABC, prey ATXN2, TLNPNAKEFNPRSF(averaged) over the two overlapping peptides; T = wild type, row aa = residue at this position

Substance	DMS-derived PSSM value (averaged), position T1
TLNPNAKEFNPRSF(averaged) T1A (ALNPNAKEFNPRSF)	0.03742
TLNPNAKEFNPRSF(averaged) T1D (DLNPNAKEFNPRSF)	0.05337
TLNPNAKEFNPRSF(averaged) T1E (ELNPNAKEFNPRSF)	0.1201
TLNPNAKEFNPRSF(averaged) T1F (FLNPNAKEFNPRSF)	0.03587
TLNPNAKEFNPRSF(averaged) T1G (GLNPNAKEFNPRSF)	0.09
TLNPNAKEFNPRSF(averaged) T1H (HLNPNAKEFNPRSF)	0.01509
TLNPNAKEFNPRSF(averaged) T1I (ILNPNAKEFNPRSF)	0.08555
TLNPNAKEFNPRSF(averaged) T1K (KLNPNAKEFNPRSF)	0.01914
TLNPNAKEFNPRSF(averaged) T1L (LLNPNAKEFNPRSF)	0.06577

— paper PMC12102759 (Protein Science : A Publication of the Protein Society, 2025)
